Assay results published in patent US9040715B2 (priority 2008, dated 2015).
≈ marks a conversion by molar mass, not a printed value. Where two headings read alike, the source gives them in different places. *1 amine or outer side, *2 acyl side, *3 side chain or, on linkers, in order; H or OH if unused. Where a SMILES comes first, the peptide text is derived from it. Bridges are numbered along the chain shown (N, C = ends). [ ]: non-standard residue; d: D form. The star is where a group is joined. hTyr(3S-OH,4S-OH,3'-OSO3H) = N[C@H](C(=O)O)[C@H](O)[C@@H](O)c1ccc(O)c(OS(=O)(=O)O)c1; Orn(4R-OH,5R-OH) = O=C([C@H](C[C@@H](O)[C@@H](O)N[*:3])N[*:1])[*:2]; Pro(3S-OH,4S-Me) = C[C@H]1CN[C@H](C(=O)O)[C@H]1O; X1 = CCCCCOc1ccc(-c2cc(-c3ccc(C(=O)*)cc3)no2)cc1; Gln(3R-OH) = NC(=O)C[C@@H](O)[C@H](N)C(=O)O; Hyp = O=C(O)[C@@H]1C[C@@H](O)CN1

How the values were obtained:
Assay type in all cases: cell-based
Candida albicans (CAF-2) = experiment: Anti-fungal/anti-yeast activity: MIC50 (broth microdilution) and MFC
Method: (§1) Fluconazole, an ergosterol inhibitor, and the beta-1,3-glucan inhibitor micafungin served as controls (See Tables 1-8).
(§2) The minimum inhibitory concentrations resulting in 50% growth inhibition (MIC50) of […] Candida species (C. albicans, C. tropicalis and C. glabrata, C. lusitaniae, C. parapsilosis, and C. apicola) as well as Aspergillus fumigatus to a set of novel synthetic compounds was determined in accordance with the guidelines in CLSI document M27-A2 (Clinical and Laboratory Standards Institute; Wayne, Pa.). The total volume of cells and drug was 100 μL per microtiter well, and each drug was diluted in RPMI to achieve final concentrations of 0.2-100 μg/ml. Uninoculated cultures were used as a reference standard. Stock inoculum suspensions were prepared from 24 hour cultures on YPD (yeast extract/peptone/dextrose) media at 30° C. For MIC determinations, an inoculum of 1.0×10^3 cells of Candidia and 2.0×10^3 cells of Aspergillus per well were used, and cells in diluted drugs were prepared in RPMI-1640 medium. MICs were determined both visually and spectrophotometrically at 24 hours and 48 h at 550 nm using a micro plate reader. The MIC50 endpoint was measured as the lowest drug concentration resulting in a reduction of growth of 50% or more compared with growth of the control.
(§3) The minimum fungicidal concentrations (MFCs) were determined for each drug-isolate-medium combination as follows. After 48 hours of incubation, 100 μL of each drug-isolate-medium combination (2 plates) was subcultured onto YPD plates (100 μL of solution was spread over the YPD plate). […] The plates were then incubated at 30° C. for 48 hours.
(§4) The in vitro fungicidal activities (MFCs) were determined for each drug-isolate-medium combination as follows. After 48 hours of incubation, 10 μL each drug-isolate-medium combination was spotted onto YPD plates (10 μL of each well is spotted sequentially with positive and negative control wells). […] The plates were then incubated at 30° C. for 48 hours.

Candidia parapsilosis = experiment: as above
Method: as §1, §2, §3, §4

Candida lusitaniae = experiment: as above; conditions: for MFC / MIC50: Clavispora lusitaniae
Method: as §1, §2, §3, §4

Candida apicola = experiment: as above; conditions: for MFC / MIC50: Starmerella apicola
Method: as §1, §2, §3, §4

Aspergillus fumigatus = experiment: as above
Method: as §1, §2, §3, §4

Candida tropicalis = experiment: as above
Method: as §1, §2, §3, §4

Candida glabrata = experiment: as above; conditions: for MFC / MIC50: Nakaseomyces glabratus
Method: as §1, §2, §3, §4

[1] = system: Saccharomyces cerevisiae (YPH501); experiment: as above
[2] = system: Fluconazole Resistant C. albicans; experiment: microbe, parasite or virus in culture; conditions: Candida albicans, read-out: MIC50
Method: as §2
The MIC50 of Compounds I-1, I-2, and I-5 in several mutant strains of Candida albicans, including fluconazole resistant clinical strains, was determined according to the methods described in Example 1 (see Table 9). The activity of Compound I-1 against fluconazole resistant strains was further explored (see Table 10). In Table 10, Strain #1 is a fluconazole sensitive Candida albicans strain; Strain #17 is a fluconazole resistant Candida albicans strain; C. albicans CS#01 is a first clinical strain; C. albicans CS#02 is a second clinical strain.

[3] = Saccharomyces cerevisiae (YPH501)

## CCCCCOc1ccc(-c2cc(-c3ccc(C(=O)N[C@H]4C[C@@H](O)[C@@H](O)NC(=O)[C@@H]5[C@@H](O)[C@@H](C)CN5C(=O)[C@H]([C@H](O)CC(N)=O)NC(=O)[C@H]([C@H](O)[C@@H](O)c5ccc(O)c(OS(=O)(=O)O)c5)NC(=O)[C@@H]5C[C@@H](O)CN5C(=O)[C@H]([C@@H](C)O)NC4=O)cc3)no2)cc1 [Micafungin, micafungin, reference compound] (X1-[Orn(4R-OH,5R-OH)]T[Hyp][hTyr(3S-OH,4S-OH,3'-OSO3H)][Gln(3R-OH)][Pro(3S-OH,4S-Me)]; lactam 1-C)
Candida albicans (CAF-2)
  Activity (fungicidal/fungistatic): fungicidal (An MFC/MIC ratio of less than four indicates that the compound is fungicidal)
  MFC: 0.016 µg/mL
  MIC50: 0.016 µg/mL
  Ratio MFC/MIC: 1
Candidia parapsilosis
  MFC: 3.2 µg/mL
  MIC50: 0.4 µg/mL
Candidia parapsilosis; Candidia parapsilosis
  Activity (fungicidal/fungistatic): fungistatic (an MFC/MIC ratio of greater than four indicates that the compound is fungistatic)
  Ratio MFC/MIC: 8
Candida lusitaniae; Candida lusitaniae
  Activity (fungicidal/fungistatic): fungicidal (An MFC/MIC ratio of less than four indicates that the compound is fungicidal)
  Ratio MFC/MIC: 1
Candida lusitaniae
  MFC: 0.032 µg/mL
  MIC50: 0.032 µg/mL
Candida apicola; Candida apicola
  Activity (fungicidal/fungistatic): fungicidal (An MFC/MIC ratio of less than four indicates that the compound is fungicidal)
  Ratio MFC/MIC: 2
Candida apicola
  MFC: 0.032 µg/mL
  MIC50: 0.016 µg/mL
Aspergillus fumigatus
  Activity (fungicidal/fungistatic): fungistatic (an MFC/MIC ratio of greater than four indicates that the compound is fungistatic)
  MFC: 8 µg/mL
  MIC50: 1 µg/mL
  Ratio MFC/MIC: 8
Candida tropicalis
  Activity (fungicidal/fungistatic): fungicidal (An MFC/MIC ratio of less than four indicates that the compound is fungicidal)
  MFC: 0.032 µg/mL
  MIC50: 0.016 µg/mL
  Ratio MFC/MIC: 2
Candida glabrata; Candida glabrata
  Activity (fungicidal/fungistatic): fungicidal (An MFC/MIC ratio of less than four indicates that the compound is fungicidal)
  Ratio MFC/MIC: 1
Candida glabrata
  MFC: 0.016 µg/mL
  MIC50: 0.016 µg/mL
[1]; Saccharomyces cerevisiae
  MFC: 0.064 µg/mL (≈ 0.0504 µM)
  MIC50: 0.032 µg/mL (≈ 0.0252 µM)
[1]; [3]
  Activity (fungicidal/fungistatic): fungicidal (An MFC/MIC ratio of less than four indicates that the compound is fungicidal)
  Ratio MFC/MIC: 2

## OC(Cn1cncn1)(Cn1cncn1)c1ccc(F)cc1F [Fluconazole, reference compound]
Candida albicans (CAF-2)
  Activity (fungicidal/fungistatic): fungistatic (an MFC/MIC ratio of greater than four indicates that the compound is fungistatic)
  MFC: 5 µg/mL
  MIC50: 0.25 µg/mL
  Ratio MFC/MIC: 20
Candidia parapsilosis; Candidia parapsilosis
  Activity (fungicidal/fungistatic): fungistatic (an MFC/MIC ratio of greater than four indicates that the compound is fungistatic)
  Ratio MFC/MIC: 10
Candidia parapsilosis; Candidia parapsilosis, read-out: MFC
  MFC: 4 µg/mL
Candidia parapsilosis; Candidia parapsilosis, read-out: MIC-50
  MIC50: 0.4 µg/mL
Candida lusitaniae; Candida lusitaniae
  Activity (fungicidal/fungistatic): fungistatic (an MFC/MIC ratio of greater than four indicates that the compound is fungistatic)
  Ratio MFC/MIC: 8
Candida lusitaniae; Candida lusitaniae, read-out: MFC
  MFC: 25 µg/mL
Candida lusitaniae; Candida lusitaniae, read-out: MIC-50
  MIC50: 3.2 µg/mL
Candida apicola; Candida apicola
  Activity (fungicidal/fungistatic): fungistatic (an MFC/MIC ratio of greater than four indicates that the compound is fungistatic)
  Ratio MFC/MIC: 5
Candida apicola; Candida apicola, read-out: MFC
  MFC: 1 µg/mL
Candida apicola; Candida apicola, read-out: MIC-50
  MIC50: 0.2 µg/mL
Aspergillus fumigatus
  Activity (fungicidal/fungistatic): fungistatic (an MFC/MIC ratio of greater than four indicates that the compound is fungistatic)
  Ratio MFC/MIC: 7
Aspergillus fumigatus; read-out: MFC
  MFC: 200 µg/mL
Aspergillus fumigatus; read-out: MIC-50
  MIC50: 30 µg/mL
Candida tropicalis
  Activity (fungicidal/fungistatic): fungistatic (an MFC/MIC ratio of greater than four indicates that the compound is fungistatic)
  Ratio MFC/MIC: 5
Candida tropicalis; read-out: MFC
  MFC: 100 µg/mL
Candida tropicalis; read-out: MIC-50
  MIC50: 20 µg/mL
Candida glabrata; Candida glabrata
  Activity (fungicidal/fungistatic): fungistatic (an MFC/MIC ratio of greater than four indicates that the compound is fungistatic)
  Ratio MFC/MIC: 9
Candida glabrata; Candida glabrata, read-out: MFC
  MFC: 50 µg/mL
Candida glabrata; Candida glabrata, read-out: MIC-50
  MIC50: 6.2 µg/mL
[1]; [3]
  Activity (fungicidal/fungistatic): fungicidal (An MFC/MIC ratio of less than four indicates that the compound is fungicidal)
  Ratio MFC/MIC: 1
[1]; Saccharomyces cerevisiae (YPH501), read-out: MFC
  MFC: 10 µg/mL (≈ 32.7 µM)
[1]; Saccharomyces cerevisiae (YPH501), read-out: MIC-50
  MIC50: 10 µg/mL (≈ 32.7 µM)
[2]; C. albicans CS#01, first clinical strain
  MIC50: 1.6 µg/mL (≈ 5.22 µM)
[2]; C. albicans CS#02, second clinical strain
  MIC50: 1.6 µg/mL (≈ 5.22 µM)
[2]; Strain #1, fluconazole sensitive Candida albicans strain
  MIC50: 0.8 µg/mL (≈ 2.61 µM)
[2]; Strain #17, fluconazole resistant Candida albicans strain
  MIC50: > 100 µg/mL
